Results taken from patent US3974140A, “Ureidoacetamido-penicillins” (Bayer Aktiengesellschaft, priority 1970, dated 1976).

Assays:
Experiment in all cases: MIC, liquid medium test tube series dilution test
E. coli 14 = assay type: cell-based; details: E. coli 14, 24 hours, 37°C
In short: (§1)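 Broth tube serial dilution in complete nutrient medium; tubes read after 24 hours' incubation at 37°C. MIC taken as the concentration in the non-turbid tube of the dilution series, expressed in units/ml.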

E. coli 183/58 = assay type: cell-based; details: E. coli 183/58, 24 hours, 37°C
In short: as §1

E. coli A 261 = assay type: cell-based; details: E. coli A 261, 24 hours, 37°C
In short: as §1

E. coli C 165 = assay type: cell-based; details: E. coli C 165, 24 hours, 37°C
In short: as §1

Klebsiella 63 = assay type: cell-based; details: Klebsiella 63, 24 hours, 37°C
In short: as §1

Klebsiella K 10 = assay type: cell-based; details: Klebsiella K 10, 24 hours, 37°C
In short: as §1

[1] = tested on: Streptoc. faec. ATCC 9790; assay type: cell-based; details: Strep. faec. (Enterococcus) ATCC 9790, 24 hours, 37°C
In short: as §1

Proteus vulg. 1017 = assay type: cell-based, Proteus vulgaris; details: Proteus vulg. 1017, 24 hours, 37°C
In short: as §1

Proteus vulg. 3400 = assay type: cell-based, Proteus vulgaris; details: Proteus vulg. 3400, 24 hours, 37°C
In short: as §1

Psdm. aerug. Bonn = assay type: cell-based, Pseudomonas aerug.; details: 24 hours, 37°C
In short: as §1

Psdm. aerug. Walter = assay type: cell-based, Pseudomonas aerug.; details: 24 hours, 37°C
In short: as §1

Staph. aureus 133 = assay type: cell-based, Staphylococcus aureus; details: Staph. aureus 133, 24 hours, 37°C
In short: as §1

Staph. aureus 1777 E = assay type: cell-based, Staphylococcus aureus; details: 24 hours, 37°C
In short: as §1

SMILES | MIC (E. coli A 261) [units/ml] | MIC (Staph. aureus 1777 E) [units/ml] | MIC [1] [units/ml] | MIC (Staph. aureus 133) | MIC (E. coli 14) | MIC (E. coli 183/58) | MIC (E. coli C 165) [units/ml] | MIC (Klebsiella 63) [units/ml] | MIC (Klebsiella K 10) [units/ml] | MIC (Proteus vulg. 1017) [units/ml] | MIC (Proteus vulg. 3400) [units/ml] | MIC (Psdm. aerug. Bonn) [units/ml] | MIC (Psdm. aerug. Walter) | also measured
COC(=O)N(C)C(=O)N[C@@H](C(=O)N[C@@H]1C(=O)N2[C@@H]1SC(C)(C)[C@@H]2C(=O)O)c1ccccc1 [Example 10 B] | > 400 | 400 |  |  |  |  |  |  |  |  |  |  |  | MIC (E. coli 14; listed as 10 B): 12.5 units/ml; MIC (E. coli 14; listed as (A) of Example 10): 12.5 units/ml; MIC (E. coli 183/58; listed as 10 B): 50 units/ml; MIC (E. coli 183/58; listed as (A) of Example 10): 50 units/ml; MIC (E. coli C 165; listed as 10 B): 50 units/ml; MIC (Klebsiella 63; listed as 10 B): 50 units/ml; MIC (Klebsiella 63; listed as (A) of Example 10): 200 units/ml; MIC (Klebsiella K 10; listed as 10 B): 50 units/ml; MIC (Klebsiella K 10; listed as (A) of Example 10): 200 units/ml; MIC ([1]; listed as 10 B): 100 units/ml; MIC (Proteus vulg. 1017; listed as 10 B): 200 units/ml; MIC (Proteus vulg. 3400; listed as 10 B): 200 units/ml; MIC (Psdm. aerug. Bonn; listed as 10 B): 200 units/ml; MIC (Psdm. aerug. Bonn; listed as (A) of Example 10): 50 units/ml; MIC (Psdm. aerug. Walter; listed as 10 B): 200 units/ml; MIC (Psdm. aerug. Walter; listed as (A) of Example 10): 50 units/ml; MIC (Staph. aureus 133; listed as 10 B): 1.6 units/ml; MIC (Staph. aureus 133; listed as (A) of Example 10): 1.56 units/ml
CC(C)OC(=O)N(C)C(=O)N[C@@H](C(=O)N[C@@H]1C(=O)N2[C@@H]1SC(C)(C)[C@@H]2C(=O)O)c1ccccc1 [Example 11 C, Sodium D(-)-α-(3-isopropoxycarbonyl-3-methyl-ureido)-benzyl-penicillin] | > 400 | 400 | 200 | 1.6 units/ml |  |  |  |  |  |  |  |  |  | MIC (E. coli 14; listed as 11 C): 6.3 units/ml; MIC (E. coli 14; listed as (A) of Example 11): 6.25 units/ml; MIC (E. coli 183/58; listed as 11 C): 12.5 units/ml; MIC (E. coli 183/58; listed as (A) of Example 11): 12.5 units/ml; MIC (E. coli C 165; listed as 11 C): 50 units/ml; MIC (E. coli C 165; listed as (A) of Example 11): 50 units/ml; MIC (Klebsiella 63; listed as 11 C): 100 units/ml; MIC (Klebsiella K 10; listed as 11 C): 50 units/ml; MIC (Proteus vulg. 1017; listed as 11 C): 100 units/ml; MIC (Proteus vulg. 3400; listed as 11 C): 100 units/ml; MIC (Psdm. aerug. Bonn; listed as 11 C): 400 units/ml; MIC (Psdm. aerug. Bonn; listed as (A) of Example 11): 50 units/ml; MIC (Psdm. aerug. Walter; listed as 11 C): 200 units/ml; MIC (Psdm. aerug. Walter; listed as (A) of Example 11): 100 units/ml
CCCCOC(=O)N(C)C(=O)N[C@@H](C(=O)N[C@@H]1C(=O)N2[C@@H]1SC(C)(C)[C@@H]2C(=O)O)c1ccccc1 [Example 12, Sodium D(-)-α-(3-n-butoxycarbonyl-3-methyl-ureido)-benzylpenicillin] | > 400 | 400 | 200 | 1.6 units/ml | 6.3 units/ml | 12.5 units/ml | 50 | 100 | 50 | 100 | 100 | 400 | 200 units/ml | 

The next lines start with results.

MIC (E. coli A 261) [units/ml] | MIC (Staph. aureus 1777 E) [units/ml] | MIC [1] [units/ml] | MIC (Staph. aureus 133) | MIC (E. coli 14) | MIC (E. coli 183/58) | MIC (E. coli C 165) [units/ml] | MIC (Klebsiella 63) [units/ml] | MIC (Klebsiella K 10) [units/ml] | MIC (Proteus vulg. 1017) [units/ml] | MIC (Proteus vulg. 3400) [units/ml] | MIC (Psdm. aerug. Bonn) [units/ml] | MIC (Psdm. aerug. Walter) | SMILES | also measured
> 400 | 400 | 50 | < 0,78 units/ml | 6,25 units/ml | 6,25 units/ml | 25 | 100 | 100 | 100 | 100 | 25 | 12,5 units/ml | Cc1ccc(C(NC(=O)N2CCNC2=O)C(=O)N[C@@H]2C(=O)N3[C@@H]2SC(C)(C)[C@@H]3C(=O)O)cc1 (stereo partly drawn) [Example 45, Sodium α-[(imidazolidin-2-on-1-yl)-carbonylamino]-p-methylbenzylpenicillin] | 
> 400 | 200 | 50 | 1,56 units/ml | 6,25 units/ml | 12,5 units/ml | 50 | 50 | 100 | 25 | 50 | 25 | 25 units/ml | Cc1ccc(C(NC(=O)N2CCNC2=O)C(=O)N[C@@H]2C(=O)N3[C@@H]2SC(C)(C)[C@@H]3C(=O)O)cc1 (stereo partly drawn) [Example 46, Sodium α-[(imidazolidin-2-on-1-yl)-carbonylamino]-p-methylbenzylpenicillin] | 
